The source made the active and inactive calls. The rule behind the calls is not given here.

Data set [1] relates to Leishmania infantum. The data set can be described thus: Antiparasitic activity against Leishmania infantum promastigotes infected in mouse RAW264.7 cells measured after 48 hrs. It counts as functional, organism-based. The following applies: RAW264.7, 48 h.
Data set [2] is described as follows: Selectivity index, ratio of CC50 for mouse RAW264.7 cells to IC50 for Leishmania infantum promastigotes infected in mouse RAW264.7 cells. It is filed as toxicity, cell-based. The following applies: read-out: Ratio CC50/IC50.
In data set [3] the test system is Leishmania infantum. The data set can be described thus: Antiparasitic activity against Leishmania infantum amastigotes infected in mouse RAW264.7 cells measured after 48 hrs. It counts as functional, organism-based. The following applies: RAW264.7, 48 h.
Data set [4] is described as follows: Selectivity index, ratio of CC50 for mouse RAW264.7 cells to IC50 for Leishmania infantum amastigotes infected in mouse RAW264.7 cells. The following applies: read-out: Ratio CC50/IC50. It counts as toxicity, cell-based.
Data set [5] can be described thus: Cytotoxicity against mouse RAW264.7 cells measured after 48 hrs. It is filed as toxicity, cell-based.
Data set [6] relates to Leishmania amazonensis. Kind of data set: Antiparasitic activity against Leishmania amazonensis promastigotes infected in mouse RAW264.7 cells measured after 48 hrs. It is filed as functional, organism-based. The following applies: for IC50: RAW264.7, 48 h.
Data set [7] is described as follows: Selectivity index, ratio of CC50 for mouse RAW264.7 cells to IC50 for Leishmania amazonensis promastigotes infected in mouse RAW264.7 cells. It is filed as toxicity, cell-based. The following applies: read-out: Ratio CC50/IC50.
Data set [8] has as its system Leishmania amazonensis. The data set can be described thus: Antiparasitic activity against Leishmania amazonensis amastigotes infected in mouse RAW264.7 cells measured after 48 hrs. It counts as functional, organism-based. The following applies: RAW264.7, 48 h.
Data set [9] can be described thus: Selectivity index, ratio of CC50 for mouse RAW264.7 cells to IC50 for Leishmania amazonensis amastigotes infected in mouse RAW264.7 cells. It is filed as toxicity, cell-based. The following applies: read-out: Ratio CC50/IC50.
Data set [10] concerns Trypanosoma cruzi. Kind of data set: Antitrypanosomal activity against bloodstream trypomastigote form of Trypanosoma cruzi Y measured after 24 hrs. It is filed as functional, organism-based.
Data set [11] in a line: Cytotoxicity against non-infected mouse peritoneal macrophage cells measured after 24 hrs. It counts as toxicity, cell-based. The following applies: non-infected peritoneal macrophages, read-out: LC50.
Data set [12] in a line: Selectivity index, ratio of LC50 for mouse peritoneal macrophage cells to IC50 for bloodstream trypomastigote form of Trypanosoma cruzi Y. It is filed as toxicity. The following applies: peritoneal macrophages, read-out: Ratio LC50/IC50.
In data set [13] the test system is Trypanosoma cruzi. Kind of data set: Antitrypanosomal activity against Trypanosoma cruzi Tulahuen expressing beta-galactosidase gene infected in mouse L929 cells measured after 120 hrs. It counts as functional, organism-based. The following applies: L929, 120 h.
The subject of data set [14] is Trypanosoma cruzi. The data set can be described thus: Antitrypanosomal activity against tissue-culture derived trypomastigote form of Trypanosoma cruzi Y measured after 120 hrs. It is filed as functional.
Data set [15] can be described thus: Cytotoxicity against mouse L929 cells assessed as inhibition of cell viability measured after 120 hrs. It counts as toxicity, cell-based.
Data set [16] is described as follows: Selectivity index, ratio of CC50 for mouse L929 cells to IC50 for Trypanosoma cruzi Tulahuen expressing beta-galactosidase gene infected in mouse L929 cells. It is filed as toxicity, cell-based. The following applies: read-out: Ratio CC50/IC50.
Data set [17] deals with Cruzipain (Trypanosoma cruzi) (UniProt P25779). Kind of data set: Inhibition of Trypanosoma cruzi cruzain at 100 uM relative to control.
Cruzipain (Trypanosoma cruzi), sequence (P25779 123-467 limits assumed): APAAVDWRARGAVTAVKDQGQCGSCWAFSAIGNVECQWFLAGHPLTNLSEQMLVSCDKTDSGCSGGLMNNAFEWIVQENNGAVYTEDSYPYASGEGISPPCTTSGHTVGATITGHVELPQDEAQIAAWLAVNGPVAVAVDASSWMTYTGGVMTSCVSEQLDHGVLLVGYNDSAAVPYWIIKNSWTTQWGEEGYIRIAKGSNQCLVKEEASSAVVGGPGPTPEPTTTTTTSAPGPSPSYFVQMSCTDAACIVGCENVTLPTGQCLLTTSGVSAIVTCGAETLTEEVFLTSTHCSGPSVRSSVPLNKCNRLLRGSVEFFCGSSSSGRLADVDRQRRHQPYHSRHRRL
Data set [18] concerns Leishmania infantum. Kind of data set: Antiparasitic activity against Leishmania infantum. It counts as functional, organism-based.
In data set [19] the test system is Trypanosoma cruzi. The data set can be described thus: Potency index, ratio of benznidazole IC50 to test compound IC50 for antitrypanosomal activity against Trypanosoma cruzi Tulahuen expressing beta-galactosidase gene infected in mouse L929 cells measured after 120 hrs. It is filed as functional.

In general, IC50 refers to the concentration at which inhibition is half-maximal. Read a high IC50 as weaker potency in that assay. For the compound `CCCCCCCCCCCCCCCCOP(=O)([O-])OCC[N+](C)(C)C` [MILTEFOSINE], the IC50 was 3.92 µM with Leishmania infantum [1], 1.72 µM in the data set on Leishmania infantum [3], 5.2 µM in the data set on Leishmania amazonensis [6] and 1.67 µM with Leishmania amazonensis [8]. The selectivity ratio stood at 5.6 in [2], 12.7 in data set [4], 4.2 in data set [7] and 13.1 in data set [9]. Further, the CC50 at 48 h in [5] worked out at 21.8 µM.

The LC50 is the concentration that kills 50% of the test population. A lower LC50 goes with a more lethal substance. By inhibition is commonly meant the share of the control response that was lost under treatment. Regarding `COc1ccc(/C=N/NC(=O)c2nc3ccccc3[nH]2)cc1O`, the IC50 is 123 µM in the data set with Trypanosoma cruzi [10]; 24.8 µM in the data set with Trypanosoma cruzi [13]; 191 µM in the data set on Leishmania infantum [1]; 52.5 µM in the data set on Leishmania infantum [3]; 136 µM in the data set with Leishmania amazonensis [8]. For the same compound, the CC50 at 24 h in [11] is 120 µM. For the same compound, the selectivity ratio stood at 1 in data set [12]; 6.2 in [16]; 0.5 in data set [2]; 1.7 in data set [4]; 0.7 in data set [9]. Further, in the data set with Trypanosoma cruzi [14], the LC50 worked out at 203 µM. The CC50 at 120 h in data set [15] turned out to be 153 µM. Moreover, the inhibition in data set [17] was 58%. The same compound yielded a CC50 at 48 h in data set [5] of 88.9 µM. The outcome in the data set on Leishmania amazonensis [6] was inactive.

The compound `CCCn1c(NC(=O)Cc2ccc(Cl)cc2)nc2ccccc21` had a half-inhibitory concentration (IC50) in the data set with Leishmania infantum [18] of 12 µM.

In the case of `O=C(N/N=C/c1ccc([N+](=O)[O-])o1)c1nc2ccccc2[nH]1`, the IC50 in the data set on Trypanosoma cruzi [10] was 304 µM; with Trypanosoma cruzi [13], 0.033 µM; in the data set on Leishmania infantum [1], 28.7 µM; in the data set on Leishmania infantum [3], 61.8 µM; in the data set on Leishmania amazonensis [8] it was 18.4 µM. The CC50 at 24 h in [11] was over 500 µM. Further, the selectivity ratio in data set [12] is over 1.6; in [16] it was 7680; in data set [2], 0.9; in [4] it was 0.4; in data set [9] it was 1.4. In the data set with Trypanosoma cruzi [14], this compound registered a median lethal concentration (LC50) of 15 µM. Also, in [15], the CC50 at 120 h worked out at 257 µM. The compound also gave an inhibition in data set [17] of 18%. The compound further returned a CC50 at 48 h in data set [5] of 25.7 µM. In addition, the result with Leishmania amazonensis [6] was inactive. In addition, the “Ratio IC50” value in the data set with Trypanosoma cruzi [19] stood at 46.

On to `O=C(N/N=C/c1ccccc1O)c1nc2ccccc2[nH]1`, for which the half-maximal inhibitory concentration (IC50) in the data set on Trypanosoma cruzi [10] is over 500 µM; with Trypanosoma cruzi [13] it was 3.6 µM; with Leishmania infantum [1], 23.9 µM; with Leishmania infantum [3], 21.8 µM; in the data set with Leishmania amazonensis [8] it was 104 µM. The LC50 in the data set with Trypanosoma cruzi [14] was found to be 19.9 µM. In [15], the CC50 at 120 h was found to be 52.4 µM. Besides, the selectivity ratio in data set [16] was found to be 14.7; in data set [2] it was 1.2; in data set [4], 1.3; in [9], 0.3. The same compound came in with an inhibition in data set [17] of 4%. The compound also yielded a CC50 at 48 h in [5] of 29.2 µM. Moreover, in the data set with Leishmania amazonensis [6], the outcome was inactive.

`O=C(N/N=C/c1ccc(O)c(O)c1)c1nc2ccccc2[nH]1`: the half-inhibitory concentration (IC50) with Trypanosoma cruzi [10] was 144 µM; with Trypanosoma cruzi [13], 72.9 µM; in the data set on Leishmania infantum [1] it was 90.8 µM; in the data set with Leishmania infantum [3], 37.8 µM; in the data set with Leishmania amazonensis [6], 170 µM; in the data set with Leishmania amazonensis [8], 62.1 µM. In addition, in data set [11], the CC50 at 24 h is 128 µM. The selectivity ratio worked out at 0.9 in data set [12]; 1.4 in data set [16]; 0.2 in [2]; 0.4 in data set [4]; 0.09 in [7]; 0.2 in data set [9]. The compound also returned a median lethal concentration (LC50) in the data set on Trypanosoma cruzi [14] of 98.2 µM. The CC50 at 120 h in [15] stood at 102 µM. For the same compound, in [17], the inhibition was determined as 61%. Besides, in data set [5], the CC50 at 48 h worked out at 14.8 µM.

The record behind these values is ChEMBL document CHEMBL5576098, “Synthesis and activity of benzimidazole N-Acylhydrazones against Trypanosoma cruzi, Leishmania amazonensis and Leishmania infantum” (Bioorg Med Chem Lett, 2024).
